Species: Rattus norvegicus
Assay: Effective concentration against cholesterol-lowering agent in OVX rats
Format: functional

`C[C@H]1CCC[C@H](O)CCCCCc2cc(O)cc(O)c2C(=O)O1` [ZERANOL] was tested, and the ED50 was 0.2 mg/kg.

Reference: ChEMBL document CHEMBL1132141, “Emerging therapies for the prevention or treatment of postmenopausal osteoporosis” (1999)
